Laboratory results: the NIST ThermoML archive (doi:10.1016/j.jct.2017.06.014)
± gives the expanded uncertainty stated by the source.

Settings: Liquid, Ebulliometric method (Recirculating still)

SMILES: CCCO [propan-1-ol]
- vapor or sublimation pressure (370.35 K): 101.3 ± 1.1 kPa

SMILES: O [water]
- vapor or sublimation pressure (373.15 K): 101.3 ± 1.1 kPa
